Reference: patent publication US20150004157A1, “OSTEOPONTIN ISOFORM A INHIBITORS AND METHODS OF USE” (NEW YORK UNIVERSITY, priority 2012, published 2015)
No end group written: not given here.

Legend:
[1] = tested on: EMT targets in H358, A549 and H460 cell lines; assay: Relative expression of EMT targets by quantitative RT-PCR in peptide treated cells; type: cell-based
Description: Here, mRNA was extracted from peptide treated cells and the relative expression of EMT targets evaluated by quantitative RT-PCR.

NSCLC cell surface = NSCLC cell surface binding / competitive binding assay with fluorescent (FAM) labeled peptide; type: cell-based; details: for binding of fluorescently labeled peptide to the surface of the NSCLC cell lines: 100 nM FAM labeled peptide, 1 hour, FIG. 6A; for displacement of fluorescent labeled exon 4 peptide from the NSCLC cell surface by competitor: recombinant protein as competitor, 30 minutes, FIGS. 6B, 6C
Method: More particularly, the peptide mimic sequence was selected that contained the PDAV region, along with a scrambled sham of the same length. Peptides were constructed and fluorescent (FAM) labeled by Think peptides (Proimmune, Sarasota, Fla.). NSCLC cell surface binding was assayed by seeding ten thousand NSCLC cells per well in a 96-well plate and allowing them to sit for overnight at 37° C. The cells were treated with 100 nM of FAM labeled Exon4 and FAM labeled scrambled peptide for 1 hour and then gently washed with 0.1% BSA in PBS for three times followed by treating with recombinant Osteopontin at 1 uM, 500 nM, 250 nM, 125 nM, 62.5 nM and 31.25 nM for 30 minutes. The cells are then washed thrice with 0.1% BSA in PBS and measured the fluorescence at […].

[2] = tested on: H358, A549 and H460 cell lines; assay: In vitro proliferation assay; type: cell-based
Method: (§1) In vitro invasion, migration, proliferation and soft agar colony formation assays were performed using the H358, A549 and H460 cell lines as previously described (Goparaju et al. “Functional Heterogeneity of Osteopontin Isoforms in Non-small Cell Lung Cancer,” J Thorac Oncol 5:1516-23 (2010), which is hereby incorporated by reference in its entirety) with 100 nM of exon 4 peptide or scrambled sham peptide in experimental medium. Experiments were performed in triplicates and comparisons of effect were made between peptide and sham within each cell line.

[3] = tested on: H358, A549 and H460 cell lines; assay: Apoptosis assay; type: cell-based
H358 = assay: In vitro functional assays in H358 over-expressing full-length OPNa; type: cell-based; details: H358, addition of the exon 4 peptide
Method: as §1
The effects of mutated OPN and the exon 4 peptide in H358, a NSCLC cell line with low endogenous OPN expression, were insightful. This cell line has low malignant potential; however, malignant properties are increased by over-expression of full-length OPNa, but not by over-expression of OPNc or the PDAV-deleted mutant. Further, the tumorigenic effects of full-length OPNa over-expression are abolished by addition of the exon 4 peptide in this cell line.

[4] = tested on: H358, A549 and H460 cell lines; assay: In vitro invasion assay; type: cell-based
Method: as §1

A549 cells = assay: Cisplatin sensitivity assay (Cell Titer Blue survival); type: cell-based; details: 100 nM peptide, cisplatin concentrations of 0.1-0.8 μM/ml, 48 h, FIG. 7E
Method: The effect of exon 4 peptide on sensitivity to cisplatin was evaluated by plating 10,000 A549 cells/well in a 96-well plate in triplicates. Five hours later, the medium was changed to DMEM containing 100 nM of exon 4 peptide, 100 nM of scrambled sham peptide, or no peptide. Fifteen minutes later, the medium was changed to DMEM containing […] of cisplatin for 48 h at 37° C. The cells were then assayed for survival by adding […] of Cell Titer Blue reagent for 1 h. The fluorescence was read at 560/590λ.

[5] = target: membrane-associated protein complex on NSCLC cells (un-described cell surface receptor for OPN exon 4; H358, A549 and H460 cell surface); assay: cell-based or functional assay
[6] = H358 cells with low endogenous OPN expression

Q: Which “relative expression of TFGb1-r” value ([1]; A549 and H460 cell lines, FIG. 9A) does the source give for “KYPDAVATWLNPDPSQK (also: FAM label) [exon 4 peptide]” here?
A: Its value is “significant decrease”.

Q: And the “relative expression of N-cadherin” value ([1]; A549 and H460 cell lines, FIG. 9B)?
A: Its value is “significant decrease”.

Q: And the “relative expression of desmoplakin” value ([1]; A549 and H460 cell lines, FIG. 9C)?
A: Its value is “significant increase”.

Q: And the “relative expression of cytokeratin-20” value ([1]; A549 and H460 cell lines, FIG. 9D)?
A: Its value is “significant increase”.

Q: What about the “relative expression of the same EMT markers (TFGb1-r, N-cadherin, desmoplakin, cytokeratin-20)” value ([1]; H358 cell line with low endogenous OPN) of the same molecule?
A: The value was “lesser impact”.

Q: And the “binding of fluorescently labeled peptide to the surface of the NSCLC cell lines” value (NSCLC cell surface)?
A: The value was “specifically binds”.

Q: And the proliferation [2, 6]?
A: The proliferation was “less impact”.

Q: What about the proliferation ([2]; cells with high endogenous OPN expression (A549 and H460), 100 nM peptide in media, FIG. 7A) of the same molecule?
A: Its proliferation is “decreased”.

Q: What about the apoptosis [3, 6] of the same molecule?
A: The apoptosis was “less impact”.

Q: And the apoptosis ([3]; cells with high endogenous OPN expression (A549 and H460), peptide in media, FIG. 7C)?
A: Its apoptosis is “increased”.

Q: And the “tumorigenic effects of full-length OPNa over-expression” value (H358)?
A: The value was “abolished”.

Q: What about the invasive capacity ([4]; FIG. 7D) of the same molecule?
A: The invasive capacity was “decrease”.

Q: And the invasion [4, 6]?
A: Its invasion is “less impact”.

Q: And the invasion ([4]; cells with high endogenous OPN expression (A549 and H460), 100 nM peptide in media, FIGS. 7B and 7D)?
A: The invasion was “decreased”.

Q: And the “impact of exogenous rOPNa on invasion” value ([4]; exon 4 peptide added to exogenous rOPNa, FIG. 7D)?
A: Its value is “blocks”.

Q: What about the “decrease in cell viability compared to untreated or scrambled peptide (cisplatin sensitivity)” value (A549 cells) of the same molecule?
A: Its value is 2 fold.

Q: “WQKPAPLDTDPKVYANS (Scrambled Sham Peptide) [scrambled sham control of the same length as the peptide mimic, reference compound]” was tested. Which “binding of fluorescently labeled peptide to the surface of the NSCLC cell lines” value (NSCLC cell surface) did it give?
A: The value was “does not”.

Q: With “rOPNa: recombinant full-length OPN (rOPNa, R&D, Minneapolis, Minn.)” as the molecule, how does the “displacement of fluorescent labeled exon 4 peptide from the NSCLC cell surface by competitor” value (NSCLC cell surface) read?
A: Its value is “displaced by molar equivalents”.

Q: What about the “displacement of fluorescent labeled exon 4 peptide from the NSCLC cell surface by competitor” value (NSCLC cell surface; listed as recombinant OPN) of the same molecule?
A: Its value is “able to compete the peptide off the cell surface”.

Q: Which fold decrease in cell viability under cisplatin (cisplatin sensitivity, A549) [5] does the source give for KYPDAVATWLNPDPSQK (also: FAM label, position not given here) here?
A: Its fold decrease in cell viability under cisplatin (cisplatin sensitivity, A549) is 2 fold.
